According to publication PMC11329753, “Human mitochondrial carriers of the SLC25 family function as monomers exchanging substrates with a ping-pong kinetic mechanism” (The EMBO Journal, 2024):
Blank lines part the entries; values can stand above or below the molecule they belong to.

What was measured:
[1] = target: T1, human aspartate/glutamate carrier 2 (AGC2, SLC25A13) (Homo sapiens, UniProt Q9UJS0); assay: nanoDSF thermal shift; type: binding; conditions: 10 mM aspartate; 20 mM HEPES pH 7.0, 50 mM NaCl, cardiolipin/LMNG; apo Tm 55.4 °C
T1 construct: N-terminal His8 tag with TEV site, tag removed by TEV cleavage; codon-optimized, expressed in Saccharomyces cerevisiae W303.1B mitochondria; purified in LMNG/cardiolipin; 74 kDa protomer, homodimer via N-terminal domains
T1 sequence (Q9UJS0 2-675): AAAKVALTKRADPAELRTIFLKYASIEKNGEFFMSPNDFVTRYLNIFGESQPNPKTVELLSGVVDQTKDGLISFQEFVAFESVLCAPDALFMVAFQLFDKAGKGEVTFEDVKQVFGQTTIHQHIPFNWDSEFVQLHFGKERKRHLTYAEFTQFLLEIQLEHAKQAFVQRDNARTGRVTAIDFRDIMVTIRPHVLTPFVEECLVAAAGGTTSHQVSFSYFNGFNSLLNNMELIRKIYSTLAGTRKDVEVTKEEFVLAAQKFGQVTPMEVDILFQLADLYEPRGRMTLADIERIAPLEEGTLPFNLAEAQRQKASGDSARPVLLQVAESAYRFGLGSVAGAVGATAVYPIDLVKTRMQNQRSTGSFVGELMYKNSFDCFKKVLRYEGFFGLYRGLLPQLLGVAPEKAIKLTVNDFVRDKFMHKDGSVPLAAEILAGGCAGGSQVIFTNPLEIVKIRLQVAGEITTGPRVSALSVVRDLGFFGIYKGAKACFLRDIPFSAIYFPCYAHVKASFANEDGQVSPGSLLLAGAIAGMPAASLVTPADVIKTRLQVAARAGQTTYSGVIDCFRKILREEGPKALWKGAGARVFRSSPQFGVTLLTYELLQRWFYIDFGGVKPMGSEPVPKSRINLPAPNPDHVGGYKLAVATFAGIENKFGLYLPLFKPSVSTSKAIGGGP

[2] = target: T1, human aspartate/glutamate carrier 2 (AGC2, SLC25A13); assay: […]-aspartate uptake into proteoliposomes, homo-exchange, Michaelis-Menten fit; type: biochemical; conditions: labelled compound; internal aspartate 0.10-1.00 mM, external 1.5-25 μM; 20 mM HEPES pH 7.4, 50 mM NaCl, 1 mM CaCl2
[3] = target: human citrate carrier (CIC, SLC25A1) (Homo sapiens, UniProt P53007); conditions: labelled compound; internal citrate 0.10-1.00 mM, external 1.0-25 μM; 20 mM HEPES pH 7.0, 50 mM NaCl, 5 mM MgCl2
[4] = target: T2, human dicarboxylate carrier (DIC, SLC25A10) (Homo sapiens, UniProt Q9UBX3, INS1GKP); assay: nanoDSF thermal shift; type: binding; conditions: 10 mM malate; 20 mM HEPES pH 7.0, 50 mM NaCl, cardiolipin/LMNG; apo Tm 54.1 °C
T2 construct: GKP added at positions 2-4; N-terminal His8 tag with factor Xa site, tag removed by on-column Xa cleavage; codon-optimized, expressed in Saccharomyces cerevisiae BJ2168 mitochondria; purified in LMNG/cardiolipin; 31,923 Da; monomer
T2 sequence (Q9UBX3 with tags, fused parts or gaps INS1GKP): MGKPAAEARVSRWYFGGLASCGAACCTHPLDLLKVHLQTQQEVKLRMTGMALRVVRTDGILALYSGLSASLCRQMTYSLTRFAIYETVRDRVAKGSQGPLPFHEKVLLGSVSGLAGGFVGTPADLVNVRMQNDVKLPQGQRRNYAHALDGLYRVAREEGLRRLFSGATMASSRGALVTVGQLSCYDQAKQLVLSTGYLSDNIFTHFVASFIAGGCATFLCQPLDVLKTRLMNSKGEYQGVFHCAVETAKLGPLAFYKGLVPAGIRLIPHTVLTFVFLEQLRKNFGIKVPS

[5] = target: T3, human oxoglutarate carrier (OGC, SLC25A11) (Homo sapiens, UniProt Q02978); assay: nanoDSF thermal shift; type: binding; conditions: 10 mM malate; 20 mM HEPES pH 7.0, 50 mM NaCl, cardiolipin/LMNG; apo Tm 51.0 °C
T3 construct: residues 2-13 deleted; N-terminal His8 tag with factor Xa site, tag removed by on-column Xa cleavage; codon-optimized, expressed in Saccharomyces cerevisiae W303.1B mitochondria; purified in LMNG/cardiolipin; 33,477 Da; monomer
T3 sequence (Q02978 14-314): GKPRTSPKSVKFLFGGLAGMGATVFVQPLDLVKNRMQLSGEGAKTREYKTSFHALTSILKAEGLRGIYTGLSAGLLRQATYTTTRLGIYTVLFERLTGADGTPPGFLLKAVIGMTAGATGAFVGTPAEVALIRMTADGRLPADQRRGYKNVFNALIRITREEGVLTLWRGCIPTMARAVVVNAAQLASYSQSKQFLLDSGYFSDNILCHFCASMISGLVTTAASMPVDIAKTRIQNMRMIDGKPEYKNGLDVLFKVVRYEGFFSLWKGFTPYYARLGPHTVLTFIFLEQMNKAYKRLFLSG

[6] = target: T3, human oxoglutarate carrier (OGC, SLC25A11); assay: […]-malate uptake into proteoliposomes, homo-exchange, Michaelis-Menten fit; type: biochemical; conditions: labelled compound; internal malate 0.10-1.00 mM, external 0.5-20 μM; 20 mM HEPES pH 7.0, 50 mM NaCl, 5 mM MgCl2
[7] = target: the molecule itself; assay: SEC; 150 μL of purified carrier on Superdex 200 Increase 10/300 in buffer B (20 mM HEPES pH 7.0, 50 mM NaCl, 0.1 mg/mL tetraoleoyl cardiolipin/0.1% (w/v) lauryl maltose neopentyl glycol); sized against ferritin, aldolase, conalbumin and ovalbumin; total weight corrected for bound lipid/detergent (≈135 kDa)

human citrate carrier (CIC, SLC25A1), sequence (P53007 13-311): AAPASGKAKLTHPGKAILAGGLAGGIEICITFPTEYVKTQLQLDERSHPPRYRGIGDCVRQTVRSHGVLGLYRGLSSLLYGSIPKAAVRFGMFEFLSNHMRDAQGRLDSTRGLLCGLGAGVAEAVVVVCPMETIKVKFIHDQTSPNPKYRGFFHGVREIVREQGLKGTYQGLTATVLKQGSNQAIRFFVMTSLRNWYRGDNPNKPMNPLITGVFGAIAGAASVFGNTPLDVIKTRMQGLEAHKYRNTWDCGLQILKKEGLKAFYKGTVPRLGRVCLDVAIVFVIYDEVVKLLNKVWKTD

- thermal shift [1]: 1.6 °C
Molecule: N[C@@H](CC(=O)O)C(=O)O [aspartate]
- apparent Km [2]: chemical gradients for (C) OGC, (F) CIC, (I) DIC, and (L) AGC2

Molecule: O=C(O)CC(O)(CC(=O)O)C(=O)O [citrate]
- apparent Km [3]: Km plotted against Vmax for the various chemical gradients for (C) OGC, (F) CIC

- thermal shift [4]: 2.5 °C
- thermal shift [5]: 5.6 °C
Molecule: O=C(O)C[C@H](O)C(=O)O [malate]
- apparent Km [6]: Km plotted against Vmax for the various chemical gradients for (C) OGC

B1: human mitochondrial aspartate/glutamate carrier 2 (natural protein, UniProt Q9UJS0 1-675, looked up)
chain: MAAAKVALTKRADPAELRTIFLKYASIEKNGEFFMSPNDFVTRYLNIFGESQPNPKTVELLSGVVDQTKDGLISFQEFVAFESVLCAPDALFMVAFQLFDKAGKGEVTFEDVKQVFGQTTIHQHIPFNWDSEFVQLHFGKERKRHLTYAEFTQFLLEIQLEHAKQAFVQRDNARTGRVTAIDFRDIMVTIRPHVLTPFVEECLVAAAGGTTSHQVSFSYFNGFNSLLNNMELIRKIYSTLAGTRKDVEVTKEEFVLAAQKFGQVTPMEVDILFQLADLYEPRGRMTLADIERIAPLEEGTLPFNLAEAQRQKASGDSARPVLLQVAESAYRFGLGSVAGAVGATAVYPIDLVKTRMQNQRSTGSFVGELMYKNSFDCFKKVLRYEGFFGLYRGLLPQLLGVAPEKAIKLTVNDFVRDKFMHKDGSVPLAAEILAGGCAGGSQVIFTNPLEIVKIRLQVAGEITTGPRVSALSVVRDLGFFGIYKGAKACFLRDIPFSAIYFPCYAHVKASFANEDGQVSPGSLLLAGAIAGMPAASLVTPADVIKTRLQVAARAGQTTYSGVIDCFRKILREEGPKALWKGAGARVFRSSPQFGVTLLTYELLQRWFYIDFGGVKPMGSEPVPKSRINLPAPNPDHVGGYKLAVATFAGIENKFGLYLPLFKPSVSTSKAIGGGP
notes: human aspartate/glutamate carrier 2 (AGC2, SLC25A13), UniProt Q9UJS0; TEV site between the His8 tag and the protein; protomers printed as 74 kDa each; also called AGC2; SLC25A13; not shown: His8, N-terminal, cleaved
- stoichiometry N [7]: 2
